Assay results from patent US12161745B2, “Peptides and compositions for use in cosmetics” (LIPOTRUE, S.L., priority 2019, dated 2024).
Where a SMILES comes first, the peptide text is derived from it. The star is where a group is joined. Palmitoyl = CCCCCCCCCCCCCCCC(=O)*

Assays:
Assay type in all cases: cell-based
[1] = system: HDFa (Human Dermal Fibroblasts, adult) cells; assay: MTT viability assay (cytotoxicity) in HDFa cells; conditions: 0.001-0.01 mg/mL, 24 h, vs basal state
Protocol: (§1) The cytotoxicity of peptide Pal-SEQ ID NO: 1-NH2 was analysed by means of viability assay in HEKa (Human Epidermal Keratinocytes, adult) and HDFa (Human Dermal Fibroblasts, adult) cells.
(§2) Cytotoxicity was assessed by means of the MTT assay. Briefly HEKa and HDFa cells were seeded in 96-well plates at a concentration of 1×10^5 cells/mL and incubated in Epilife Medium supplemented with 1% (v/v) EDGS and 1% (v/v) of Penicillin/Streptomycin (for HEKa cells) and Medium 106 supplemented with 2% (v/v) of Low Serum Growth Supplement (LSGS) (for HDFa cells) for 24 h at 37° C., 5% CO2 and saturated humidity. Cells were then treated with different concentrations of peptide Pal-SEQ ID NO: 1-NH2 (0.001 mg/mL, 0.005 mg/mL, 0.01 mg/mL, 0.05 mg/mL, and 0.1 mg/mL for HEKa cells; and 0.001 mg/mL, 0.005 mg/mL and 0.01 mg/mL for HDFa cells) in triplicates, for MTT evaluation. […] The plates were placed on a shaker for 5 minutes for complete solubilisation of the crystals and then the absorbance at 450 nm of each well was determined using the microplate reader Multiskan FC, which is directly proportional to the number of living cells in culture. Absorbance values were normalized using the data obtained for non-treated cells (basal state).

[2] = system: HEKa (Human Epidermal Keratinocytes, adult) cells; assay: MTT viability assay (cytotoxicity) in HEKa cells; conditions: 0.001-0.1 mg/mL, 24 h, vs basal state
Protocol: as §1, §2

[3] = system: human organotypical skin explant cultures (hOSECs); assay: LDH cytotoxicity assay in human organotypical skin explant cultures
Protocol: (§3) In this case healthy and aged human organotypical skin explant cultures (hOSECs) were used as experimental systems.
(§4) The aged hOSEC was obtained by exposition of the healthy hOSEC to hydrocortisone (5 μg/mL) for the first five days of the study.
The total number of treatment groups was as follows: • 1. Control group (negative control): Untreated hOSEC. • 2. Aged hOSEC: hOSECs treated with hydrocortisone at 5 μg/mL (Abraham A, Roga G. (2014) Topical steroid-damaged skin. Indian J Dermatol. 59(5), 456-9.) • 3. Aged hOSEC+Product A (cream, this is, placebo): hOSECs treated with hydrocortisone at 5 μg/mL and incubated with product A (10 μL). • 4. […]
The LDH Cytotoxicity test is a colorimetric assay that quantitatively measures lactate dehydrogenase (LDH), a stable cytosolic enzyme that is released into the culture medium supernatant upon damage of the cytoplasmic membrane. The released LDH in culture medium supernatants is measured for 30 minutes coupled enzymatic reaction: LDH oxidizes lactate to pyruvate which then reacts with the tetrazolium salt WST-1 to form formazan. The increase in the amount of formazan measured in the culture supernatant directly correlates to the increase in the number of lysed cells (damage) in the skin explant. […]
The results of this assay were calculated considering the negative control, this is, untreated hOSEC as 100% of the LDH normal concentration.

[4] = system: human organotypical skin explant cultures (hOSECs); assay: Resazurin assay in human organotypical skin explant cultures; conditions: 5 μg/mL
Protocol: as §3, §4
The total number of treatment groups was as follows: • 1. Control group (negative control): Untreated hOSEC. • 2. Aged hOSEC: hOSECs treated with hydrocortisone at 5 μg/mL (Abraham A, Roga G. (2014) Topical steroid-damaged skin. Indian J Dermatol. 59(5), 456-9.) • 3. Aged hOSEC+Product A (cream, this is, placebo): hOSECs treated with hydrocortisone at 5 μg/mL and incubated with product A (10 μL). • 4. Aged hOSEC+Product B (cream with Pal-SEQ ID NO: 1-NH2 at a concentration of 0.005 mg/mL): hOSECs treated with hydrocortisone at 5 μg/mL and incubated with Product B (10 μL).
The total duration of the assay was of 10 days (days 1 to 10). Hydrocortisone was applied in the appropriate or corresponding groups each day on days 1 to 5. […]
For the resazurin assay, the skin explants were treated with 6 μM of resazurin in NaCl solution for 1 hour. […] The resorufin formed was quantified in a fluorometer plate reader.
The fluorescent signal was monitored using 530-560 nm excitation wavelength and 590 nm emission wavelength.
The results of the resazurin assay were calculated considering the negative control, untreated healthy hOSECs, as 100% viability. […]

Row | Compound | viability of HDFa cells [1] | viability of HEKa cells [2] | toxicity deduced from LDH cytotoxicity assay and resazurin assay ([3]; cream with 0.005 mg/mL peptide on aged hOSEC) | reduction of Resorufin percentage with respect to the Control group [4] [%] | adverse effect in hOSECs (LDH, plasma membrane damage) ([3]; hydrocortisone 5 μg/mL, days 1 to 5)
1 | CCCCCCCCCCCCCCCC(=O)N[C@@H](Cc1c[nH]cn1)C(=O)N[C@@H](Cc1ccc(O)cc1)C(=O)N[C@@H](CCCNC(=N)N)C(=O)N[C@@H](C)C(N)=O [Pal-SEQ ID NO: 1-NH2, Pal-His-Tyr-Arg-Ala-NH2] (Palmitoyl-HYRA-NH2) | did not alter viability | did not alter viability | not toxic |  | 
2 | C[C@]12CCC(=O)C=C1CC[C@@H]1[C@@H]2[C@@H](O)C[C@@]2(C)[C@H]1CC[C@]2(O)C(=O)CO [hydrocortisone, reference compound] |  |  |  | 10 | did not produce any adverse effect
